From patent publication US11090304B2 (Amgen Inc., priority 2018, dated 2021)

Biological target: GDP-bound KRAS protein (aa 1-169), containing both G12C and C118A amino acid substitutions (Homo sapiens, UniProt P01116, C118A/G12C)
Assay: Coupled nucleotide exchange assay (SOS-mediated, AlphaScreen)
Assay type: biochemical
Conditions: not given

Chain of GDP-bound KRAS protein (aa 1-169), containing both G12C and C118A amino acid substitutions (P01116 1-169 isoform P01116-2 G12C/C118A): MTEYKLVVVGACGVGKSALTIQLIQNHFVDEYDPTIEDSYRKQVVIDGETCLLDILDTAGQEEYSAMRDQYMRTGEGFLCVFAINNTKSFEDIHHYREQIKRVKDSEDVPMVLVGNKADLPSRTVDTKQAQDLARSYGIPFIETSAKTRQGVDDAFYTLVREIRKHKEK

Structure (SMILES)	Coupled exchange IC50 (5 min)
C=CC(=O)N1[C@@H]2C[C@H]1CN(c1nc(=O)n(-c3c(C)ccnc3C(C)C)c3nc(-c4ccccc4F)c(Cl)cc13)C2 (atropisomer, axis not shown; (M)) [Example 135, (M)-6-Chloro-7-(2-fluorophenyl)-1-(4-methyl-2-(2-propanyl)-3-pyridinyl)-4-((1R,5S)-6-(2-propenoyl)-3,6-diazabicyclo[3.1.1]heptan-3-yl)pyrido[2,3-d]pyrimidin-2(1H)-one]	3.32 | nda μM

Same assay, conditions: 5 min compound pre-incubation

Structure (SMILES)	Coupled exchange IC50 (5 min)
C=CC(=O)N1CCN(c2nc(=O)n(-c3c(C)ccnc3C3CC3)c3nc(-c4ccccc4F)c(F)cc23)[C@@H](C)C1 [Example 57-18, 1-(2-cyclopropyl-4-methyl-3-pyridinyl)-6-fluoro-7-(2-fluorophenyl)-4-((2S)-2-methyl-4-(2-propenoyl)-1-piperazinyl)pyrido[2,3-d]pyrimidin-2(1H)-one]	1.73 | nda μM
C=CC(=O)N1CCN(c2nc(=O)n(-c3ccccc3C(C)C)c3cc(-c4ccccc4F)c(Cl)nc23)[C@@H](C)C1 (single isomer, unassigned) [Example 110-1]	3.22 | nda μM
C=CC(=O)N1CCN(c2nc(=O)n(-c3ccccc3C3(C(F)(F)F)CC3)c3nc(-c4c(O)cccc4F)c(F)cc23)[C@@H](C)C1 (single isomer, unassigned) [Example 59-1-2]	1.1 | nda μM
C=CC(=O)N1CCN(c2nc(=O)n(-c3ccccc3C(C)O)c3nc(-c4c(O)cccc4F)c(Cl)cc23)[C@@H](C)C1 (stereo partly drawn) [Example 60-27, 6-chloro-7-(2-fluoro-6-hydroxyphenyl)-1-(2-((1R)-1-hydroxyethyl)phenyl)-4-((2S)-2-methyl-4-(2-propenoyl)-1-piperazinyl)pyrido[2,3-d]pyrimidin-2(1H)-one | 6-chloro-7-(2-fluoro-6-hydroxyphenyl)-1-(2-((1S)-1-hydroxyethyl)phenyl)-4-((2S)-2-methyl-4-(2-propenoyl)-1-piperazinyl)pyrido[2,3-d]pyrimidin-2(1H)-one]	1.3 | nda μM
C=CC(=O)N1CCN(c2nc(=O)n(-c3ccccc3C(C)C)c3nc(-c4cccs4)c(Cl)cc23)[C@@H](C)C1 (single isomer, unassigned) [Example 67-4-1]	7.34 | nda μM
C=CC(=O)N1CCN(c2nc(=O)n(-c3c(C)ccnc3C(C)C)c3nc(-c4cc(N)ccc4F)c(F)cc23)[C@@H](C)C1 (single isomer, unassigned) [Example 58-6-1]	8.63 | nda μM
C=CC(=O)N1CCN(c2nc(=O)n(-c3c(C)ccnc3CC)c3nc(-c4ccccc4F)c(F)cc23)[C@@H](C)C1 [Example 57-16, 1-(2-ethyl-4-methyl-3-pyridinyl)-6-fluoro-7-(2-fluorophenyl)-4-((2S)-2-methyl-4-(2-propenoyl)-1-piperazinyl)pyrido[2,3-d]pyrimidin-2(1H)-one]	3.79 | nda μM
C=CC(=O)N1C[C@@H](C)N(c2nc(=O)n(-c3c(C)ccnc3C(C)C)c3nc(-c4c(O)cccc4F)c(Cl)cc23)[C@H](C)C1 (atropisomer, axis not shown; (M)) [Example 73-19, (M)-6-chloro-4-((2R,6R)-2,6-dimethyl-4-(2-propenoyl)-1-piperazinyl)-7-(2-fluoro-6-hydroxyphenyl)-1-(4-methyl-2-(2-propanyl)-3-pyridinyl)pyrido[2,3-d]pyrimidin-2(1H)-one]	7.55 | nda μM
C=CC(=O)N1CCN(c2nc(=O)n(-c3c(CC)cccc3CC)c3nc(N4CC[C@H](C)C4)c(Cl)cc23)[C@@H](C)C1 [Example 66-5, 6-chloro-1-(2,6-diethylphenyl)-4-((2S)-2-methyl-4-(2-propenoyl)-1-piperazinyl)-7-((3S)-3-methyl-1-pyrrolidinyl)pyrido[2,3-d]pyrimidin-2(1H)-one]	21.2 | nda μM
C=CC(=O)N1CCN(c2nc(=O)n(-c3c(C)cc(N(C)C)cc3C(C)C)c3nc(-c4ccccc4F)c(Cl)cc23)[C@@H](C)C1 (single isomer, unassigned) [Example 55-16-1]	1.05 | nda μM
C=CC(=O)N1CCN(c2nc(=O)n(-c3c(CC)cccc3CC)c3nc(N4CC[C@@H](F)C4)c(Cl)cc23)[C@@H](C)C1 [Example 66-7, 6-chloro-1-(2,6-diethylphenyl)-7-((3R)-3-fluoro-1-pyrrolidinyl)-4-((2S)-2-methyl-4-(2-propenoyl)-1-piperazinyl)pyrido[2,3-d]pyrimidin-2(1H)-one]	88 | nda μM
C=CC(=O)N1CCN(c2nc(=O)n(-c3c(C)ncnc3C(C)C)c3nc(-c4ccccc4F)c(Cl)cc23)[C@@H](C)C1 (single isomer, unassigned) [Example 55-13-1]	0.722 | nda μM
C=CC(=O)N1CCN(c2nc(=O)n(-c3cccnc3C(C)(C)C)c3nc(-c4ccccc4F)c(Cl)cc23)[C@@H](C)C1 (single isomer, unassigned) [Example 54-112-2]	5.02 | nda μM
C=CC(=O)N1CCN(c2nc(=O)n(-c3c(C)ccnc3C(C)C)c3nc(-c4ccccc4F)c(Cl)cc23)[C@H](C(F)F)C1 (single isomer, unassigned) [Example 78-3-1]	1.19 | nda μM
C=CC(=O)N1CCN(c2nc(=O)n(-c3c(C)ccnc3C(C)C)c3nc(-c4ccccc4F)c(Cl)cc23)[C@@H](C(F)(F)F)C1 (single isomer, unassigned) [Example 78-9-2]	0.423 | nda μM
C=CC(=O)N1CCN(c2nc(=O)n(-c3ccccc3C(C)C)c3nc(-c4cccs4)c(Cl)cc23)[C@@H](C)C1 (single isomer, unassigned) [Example 67-4-2]	1.91 | nda μM
C=CC(=O)N1CCN(c2nc(=O)n(-c3c(C)cccc3CC)c3nc(-c4c(O)cccc4F)c(F)cc23)[C@@H](C)C1 (single isomer, unassigned) [Example 57-14-2]	1.8 | nda μM
C=CC(=O)N1CCN(c2nc(=O)n(-c3c(N)cccc3C(C)C)c3nc(-c4ccccc4F)c(Cl)cc23)[C@@H](C)C1 (single isomer, unassigned) [Example 155-2]	13.5 | nda μM
C=CC(=O)N1CCN(c2nc(=O)n(-c3ccccc3C(C)C)c3nc(-c4ccncc4F)c(Cl)cc23)[C@@H](C)C1 [Example 67-1, 6-Chloro-7-(3-fluoro-4-pyridinyl)-4-((2S)-2-methyl-4-(2-propenoyl)-1-piperazinyl)-1-(2-(2-propanyl)phenyl)pyrido[2,3-d]pyrimidin-2(1H)-one]	3.51 | nda μM
C=CC(=O)N1CCN(c2nc(=O)n(-c3ccccc3S(C)(=O)=O)c3nc(-c4c(O)cccc4F)c(Cl)cc23)[C@@H](C)C1 (single isomer, unassigned) [Example 54-56-2]	1.24 | nda μM
C=CC(=O)N1CCN(c2nc(=O)n(-c3ccccc3C(C)C)c3nc(C4=CCCCC4)c(Cl)cc23)[C@@H](C)C1 [Example 54-75, 6-chloro-7-(1-cyclohexen-1-yl)-4-((2S)-2-methyl-4-(2-propenoyl)-1-piperazinyl)-1-(2-(2-propanyl)phenyl)pyrido [2,3-d]pyrimidin-2(1H)-one]	1.08 | nda μM
C=CC(=O)N1CCN(c2nc(C(N)=O)c(-c3ccccc3C(C)C)c3nc(-c4ccccc4F)c(Cl)cc23)CC1 [Example 147, 3-Chloro-2-(2-fluorophenyl)-8-(2-(2-propanyl)phenyl)-5-(4-(2-propenoyl)-1-piperazinyl)-1,6-naphthyridine-7-carboxamide]	13.6 | nda μM
C=CC(=O)NC1CN(c2nc(=O)n(-c3c(C)ccnc3C(C)C)c3nc(-c4c(O)cccc4F)c(F)cc23)C1 (single isomer, unassigned) [Example 75-6, (M)-N-(1-(6-fluoro-7-(2-fluoro-6-hydroxyphenyl)-1-(4-methyl-2-(2-propanyl)-3-pyridinyl)-2-oxo-1,2-dihydropyrido[2,3-d]pyrimidin-4-yl)-3-azetidinyl)-2-propenamide]	85 | nda μM
C=CC(=O)N1CCN(c2nc(=O)n(-c3ccccc3C(C)C)c3nc(Cl)c(Cl)cc23)[C@@H](C)C1 (atropisomer, axis not shown; (P)) [Example 61-1-2, (P)-6,7-dichloro-4-((2S)-2-methyl-4-(2-propenoyl)-1-piperazinyl)-1-(2-(2-propanyl)phenyl)pyrido[2,3-d]pyrimidin-2(1H)-one]	20.6 | nda μM
C=CC(=O)N1CCN(c2nc(=O)n(-c3c(C)ccnc3C(C)C)c3nc(-c4nc(N)ccc4F)c(F)cc23)[C@@H](C)C1 (atropisomer, axis not shown; (M)) [Example 65-2, (M)-7-(6-amino-3-fluoro-2-pyridinyl)-6-fluoro-1-(4-methyl-2-(2-propanyl)-3-pyridinyl)-4-((2S)-2-methyl-4-(2-propenoyl)-1-piperazinyl)pyrido[2,3-d]pyrimidin-2(1H)-one]	1.31 | nda μM
C=CC(=O)N1CCN(c2nc(=O)n(-c3nc(C)ccc3C(C)C)c3nc(-c4c(O)cccc4F)c(Cl)cc23)[C@@H](C)C1 [Example 54-14, 6-chloro-7-(2-fluoro-6-hydroxyphenyl)-1-(6-methyl-3-(2-propanyl)-2-pyridinyl)-4-((2S)-2-methyl-4-(2-propenoyl)-1-piperazinyl) pyrido[2,3-d]pyrimidin-2(1H)-one]	12.4 | nda μM
C=CC(=O)N1CCN(c2nc(=O)n(-c3ccccc3N3CCOCC3)c3nc(-c4c(O)cccc4F)c(Cl)cc23)[C@@H](C)C1 [Example 54-100, 6-chloro-7-(2-fluoro-6-hydroxyphenyl)-4-((2S)-2-methyl-4-(2-propenoyl)-1-piperazinyl)-1-(2-(4-morpholinyl)phenyl) pyrido[2,3-d] pyrimidin-2(1H)-one]	2.51 | nda μM
